Assay results taken from patent US9056876B2, “Substituted 1H-pyrazolo[3′,4′,4,5]thieno[2,3-b]pyridin-3-amine analogs as positive allosteric modulators of the muscarinic acetylcholine receptor M4” (VANDERBILT UNIVERSITY, priority 2011, dated 2015).

Target: T1, mAChR M4 (UniProt P08173)
T1 construct: hM1 and hM4 cDNAs were purchased from Missouri S&T cDNA Resource
T1 sequence (P08173 1-479): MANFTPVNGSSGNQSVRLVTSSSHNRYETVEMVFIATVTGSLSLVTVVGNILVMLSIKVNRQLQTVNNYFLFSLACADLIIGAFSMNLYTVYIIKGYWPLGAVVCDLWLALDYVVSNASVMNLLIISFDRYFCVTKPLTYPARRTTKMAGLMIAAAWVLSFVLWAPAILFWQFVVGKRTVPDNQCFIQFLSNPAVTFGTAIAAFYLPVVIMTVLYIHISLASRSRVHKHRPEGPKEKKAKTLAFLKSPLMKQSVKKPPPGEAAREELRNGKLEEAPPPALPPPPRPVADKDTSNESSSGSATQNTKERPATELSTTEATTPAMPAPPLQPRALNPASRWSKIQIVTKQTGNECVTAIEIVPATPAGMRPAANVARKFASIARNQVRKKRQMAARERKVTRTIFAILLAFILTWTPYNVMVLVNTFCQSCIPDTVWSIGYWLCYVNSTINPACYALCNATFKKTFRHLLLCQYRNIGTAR
Assay: mAChR M4 cell-based functional assay (calcium mobilization, Fluo-4, FDSS)
Details: for Emax (%)*: % ACh maximum at 30 μM; for pEC50: positive allosteric modulator activity, EC20 acetylcholine response; for pEC50 / EC50: CHO-K1 cells; for EC50: positive allosteric modulator activity: concentration-dependent increase in the EC20 acetylcholine response, >10 μM estimated for low potency (no plateau)
Source text: Chinese hamster ovary (CHO-K1) cells stably expressing rat (r)M1 were purchased from the American Type Culture Collection and cultured according to their indicated protocol. CHO cells stably expressing human (h)M2, hM3, and hM5 were described previously (Levey A I, et al., (1991) J Neurosci 11:3218-3226.); hM1 and hM4 cDNAs were purchased from Missouri S&T cDNA Resource; rM4 cDNA was provided by T. I. Bonner (National Institutes of Health, Bethesda, Md.). rM2 and rM3 were cloned from a rat brain cDNA library and sequence verified. hM1, rM2, rM3, hM4, and rM4 cDNAs were used to stably transfect CHO-K1 cells purchased from the American Type Culture Collection using Lipofectamine-2000. To make stable rM2, hM2, rM3, hM4, and rM4 cell lines for use in calcium mobilization assays, these cells also were stably transfected with a chimeric G-protein (Gqi5) (provided by B. R. Conklin, University of California, San Francisco) using Lipofectamine 2000. rM1, hM1, rM3, hM3, rM5, and hM5 cells were grown in Ham's F-12 medium containing 10% heat-inactivated fetal bovine serum (FBS), 20 mM HEPES, and 50 µg/mL G418 sulfate. rM2-Gqi5, hM2-Gqi5, and hM4-Gqi5 cells were grown in the same medium also containing 500 µg/mL Hygromycin B. Stable rM4-Gqi5 cells were grown in DMEM containing 10% heat-inactivated FBS, 20 mM HEPES, 400 µg/mL G418 sulfate, and 500 µg/mL Hygromycin B.
For high throughput measurement of agonist-evoked increases in intracellular calcium, CHO-K1 cells stably expressing the target muscarinic receptor were plated in growth medium lacking G418 and hygromycin at 15,000 cells/20 μL/well in Greiner 384-well black-walled, tissue culture (TC)-treated, clear-bottom plates (VWR). Cells were incubated overnight at 37° C. and 5% CO2. The next day, cells were washed using an ELX 405 (BioTek) with four washes (80 μL) of assay buffer then aspirated to 20 μL. Next, […] of 16 μM Fluo-4/acetoxymethyl ester (Invitrogen, Carlsbad, Calif.) prepared as a 2.3 mM stock in DMSO and mixed in a 1:1 ratio with 10% (w/v) Pluronic F-127 and diluted in assay buffer was added to the wells and the cell plates were incubated for 50 min at 37° C. and 5% CO2. Dye was removed by washing with the ELX 405 (four 80 μL washes of assay buffer) then aspirated to 20 μL. Compound master plates were formatted in an 11 point CRC format (1:3 dilutions) in 100% DMSO with a starting concentration of 10 mM using the BRAVO liquid handler (Agilent). Test compound CRCs were then transferred to daughter plates (240 nL) using the Echo acoustic plate reformatter (Labcyte, Sunnyvale, Calif.) and then diluted into assay buffer (40 μL) to a 2× stock using a Thermo Fisher Combi (Thermo Fisher Scientific, Waltham, Mass.).
Calcium flux was measured using the Functional Drug Screening System (FDSS) 6000 (Hamamatsu Corporation, Tokyo, Japan) as an increase in the fluorescent static ratio. Compounds were applied to cells (20 μL, 2×) using the automated system of the FDSS 6000 at 4 s into the 300 s protocol and the data were collected at 1 Hz. At 144 s into the 300 s protocol, 10 μL of an EC20 concentration of the muscarinic receptor agonist acetylcholine was added (5×), followed by the addition of 12 μL an EC80 concentration of acetylcholine at the 230 s time point (5×). Agonist activity was analyzed as a concentration-dependent increase in calcium mobilization upon compound addition. Positive allosteric modulator activity was analyzed as a concentration-dependent increase in the EC20 acetylcholine response. Antagonist activity was analyzed as a concentration-dependent decrease in the EC80 acetylcholine response. Concentration-response curves were generated using a four-parameter logistical equation in XLfit curve fitting software (IDBS, Bridgewater, N.J.) for Excel (Microsoft, Redmond, Wash.) or Prism (GraphPad Software, Inc., San Diego, Calif.). […]

| SMILES | Emax (%)* [%] | pEC50 | EC50 [nM] |
| --- | --- | --- | --- |
| Cc1cc(C)c2c(n1)sc1c(NCC3CCCO3)nn(C)c12 (stereo not shown) [Compound 83, 1,6,8-trimethyl-N-((tetrahydrofuran-2-yl)methyl)-1H-pyrazolo[3′,4′:4,5]thieno[2,3-b]pyridin-3-amine] | 52 | 6.02 | 960 |
| Cc1cc(C)c2c(n1)sc1c(NC(=O)c3ccc(F)cc3)nn(C)c12 [Compound 154, 4-fluoro-N-(1,6,8-trimethyl-1H-pyrazolo[3′,4′:4,5]thieno[2,3-b]pyridin-3-yl)benzamide] |  | <5.00 | > 10000 |
| Cc1cc(C)c2c(n1)sc1c(NCc3ccco3)nn(CCO)c12 [Compound 95, 2-(3-((furan-2-ylmethyl)amino)-6,8-dimethyl-1H-pyrazolo[3′,4′:4,5]thieno[2,3-b]pyridin-1-yl)ethanol] | 67 | 6.92 | 120 |
| Cc1ccc2c(n1)sc1c(NC(=O)c3ccc(Br)cc3)nn(C)c12 [Compound 158, 4-bromo-N-(1,6-dimethyl-1H-pyrazolo[3′,4′:4,5]thieno[2,3-b]pyridin-3-yl)benzamide] |  | <5.00 | > 10000 |
| Cc1cc(C)c2c(n1)sc1c(NCc3ccccn3)nn(C)c12 [Compound 77, 1,6,8-trimethyl-N-(pyridin-2-ylmethyl)-1H-pyrazolo[3′,4′:4,5]thieno[2,3-b]pyridin-3-amine] | 55 | 6.27 | 540 |
| COCCn1nc(NCc2ccc(S(C)(=O)=O)cc2)c2sc3nc(C)cc(C)c3c21 [Compound 119, 1-(2-methoxyethyl)-6,8-dimethyl-N-(4-(methylsulfonyl)benzyl)-1H-pyrazolo[3′,4′:4,5]thieno[2,3-b]pyridin-3-amine] | 65 | 5.92 | 1200 |
| Cc1cc(C)c2c(n1)sc1c(NCc3[nH]cnc3C)nn(C)c12 [Compound 92, 1,6,8-trimethyl-N-((4-methyl-1H-imidazol-5-yl)methyl)-1H-pyrazolo[3′,4′:4,5]thieno[2,3-b]pyridin-3-amine] | 50 | 6.37 | 430 |
| Cc1cc(C)c2c(n1)sc1c(NCc3ccsc3)nn(C)c12 [Compound 80, 1,6,8-trimethyl-N-(thiophen-3-ylmethyl)-1H-pyrazolo[3′,4′:4,5]thieno[2,3-b]pyridin-3-amine] | 71 | 7.21 | 62 |
| Cc1cc(C)cc(CNc2nn(C)c3c2sc2nc(C)cc(C)c23)c1 [Compound 58, N-(3,5-dimethylbenzyl)-1,6,8-trimethyl-1H-pyrazolo[3′,4′:4,5]thieno[2,3-b]pyridin-3-amine] | 37 | <5.00 | > 10000 |
| Cc1cc(C)c2c(n1)sc1c(NCc3ccc(F)c(F)c3)nn(C)c12 [Compound 60, N-(3,4-difluorobenzyl)-1,6,8-trimethyl-1H-pyrazolo[3′,4′:4,5]thieno[2,3-b]pyridin-3-amine] | 63 | <5.00 | > 10000 |
| COCCn1nc(N)c2sc3nc(C)cc(C)c3c21 [Compound 165, 1-(2-methoxyethyl)-6,8-dimethyl-1H-pyrazolo[3′,4′:4,5]thieno[2,3-b]pyridin-3-amine] |  | <5.00 | > 10000 |
| Cc1ccnc2sc3c(NC(=O)c4ccccc4)nn(C)c3c12 [Compound 159, N-(1,8-dimethyl-1H-pyrazolo[3′,4′:4,5]thieno[2,3-b]pyridin-3-yl)benzamide] |  | <5.00 | > 10000 |
| Cc1nc2sc3c(NCC4CCCCC4)n[nH]c3c2c(C)c1Cl [Compound 142, 7-chloro-N-(cyclohexylmethyl)-6,8-dimethyl-1H-pyrazolo[3′,4′:4,5]thieno[2,3-b]pyridin-3-amine] |  | <5.00 | > 10000 |
| Cc1nc2sc3c(NCc4ccccc4F)n[nH]c3c2c(C)c1Cl [Compound 147, 7-chloro-N-(2-fluorobenzyl)-6,8-dimethyl-1H-pyrazolo[3′,4′:4,5]thieno[2,3-b]pyridin-3-amine] |  | <5.00 | > 10000 |
| Cc1ccc2c(n1)sc1c(NCCC(C)C)n[nH]c12 [Compound 156, N-isopentyl-6-methyl-1H-pyrazolo[3′,4′:4,5]thieno[2,3-b]pyridin-3-amine] |  | <5.00 | > 10000 |
| Cc1cc(C)c2c(n1)sc1c(NCCC(C)C)nn(C)c12 [Compound 32, N-isopentyl-1,6,8-trimethyl-1H-pyrazolo[3′,4′:4,5]thieno[2,3-b]pyridin-3-amine] | 81 | 6.72 | 190 |
| Cc1ccc2c(n1)sc1c(NCc3ccccc3)n[nH]c12 [Compound 50, N-benzyl-6-methyl-1H-pyrazolo[3′,4′:4,5]thieno[2,3-b]pyridin-3-amine] | 57 | 5.60 | 2500 |
| Cc1nc2sc3c(NCCC(C)C)nn(C)c3c2c(C)c1Cl [Compound 24, 7-chloro-N-isopentyl-1,6,8-trimethyl-1H-pyrazolo[3′,4′:4,5]thieno[2,3-b]pyridin-3-amine] | 61 | <5.00 | > 10000 |
| COc1ccc(Cn2nc(N)c3sc4nc(C)c(Cl)c(C)c4c32)cc1 [Compound 161, 7-chloro-1-(4-methoxybenzyl)-6,8-dimethyl-1H-pyrazolo[3′,4′:4,5]thieno[2,3-b]pyridin-3-amine] |  | <5.00 | > 10000 |
| Cc1cc(C)c2c(n1)sc1c(NC3CCN(C(C)C)CC3)nn(C)c12 [Compound 162, N-(1-isopropylpiperidin-4-yl)-1,6,8-trimethyl-1H-pyrazolo[3′,4′:4,5]thieno[2,3-b]pyridin-3-amine] |  | <5.00 | > 10000 |
| Cc1cc(C)c2c(n1)sc1c(NC3CCC(NC(=O)OC(C)(C)C)CC3)n[nH]c12 (stereo not shown) [Compound 139, tert-butyl (4-((6,8-dimethyl-1H-pyrazolo[3′,4′:4,5]thieno[2,3-b]pyridin-3-yl)amino)cyclohexyl)carbamate] |  | <5.00 | > 10000 |
| COCCn1nc(NCc2ccco2)c2sc3nc(C)cc(C)c3c21 [Compound 167, N-(furan-2-ylmethyl)-1-(2-methoxyethyl)-6,8-dimethyl-1H-pyrazolo[3′,4′:4,5]thieno[2,3-b]pyridin-3-amine] |  | <5.00 | > 10000 |
